Laboratory results from patent US20230143604A1, “QW DOSING OF GIP RECEPTOR AGONIST PEPTIDE COMPOUNDS AND USES THEREOF” (TAKEDA PHARMACEUTICAL COMPANY LIMITED, priority 2020, published 2023).
Read-outs that look alike come from different tables or passages of the source. Starred links: 1 amine or outer side, 2 acyl side, 3 side chain; linkers in the order of their positions; H or OH if unused. Non-standard residues stand in square brackets, D forms with d. Residues, ends and D or L forms follow the SMILES beside them. Groups on a side chain read outwards from the residue. *: point of attachment. C18 diacid = O=C(O)CCCCCCCCCCCCCCCCC(=O)*; γGlu = O=C(O)[C@H](CCC(=O)[*:2])N[*:1]; NMeY = CN[C@@H](Cc1ccc(O)cc1)C(=O)O; AEEA = NCCOCCOCC(=O)O; Aib = CC(C)(N)C(=O)O

Legend:
human GIPR = target: T1, human GIPR (Homo sapiens, UniProt P48546); assay: Human GIPR agonist activity, intracellular cAMP accumulation; type: cell-based
T1 construct: HEK-293T cells overexpressing full-length human GIPR; FLAG (N); host or cells: HEK-293T
T1 sequence (P48546 22-466): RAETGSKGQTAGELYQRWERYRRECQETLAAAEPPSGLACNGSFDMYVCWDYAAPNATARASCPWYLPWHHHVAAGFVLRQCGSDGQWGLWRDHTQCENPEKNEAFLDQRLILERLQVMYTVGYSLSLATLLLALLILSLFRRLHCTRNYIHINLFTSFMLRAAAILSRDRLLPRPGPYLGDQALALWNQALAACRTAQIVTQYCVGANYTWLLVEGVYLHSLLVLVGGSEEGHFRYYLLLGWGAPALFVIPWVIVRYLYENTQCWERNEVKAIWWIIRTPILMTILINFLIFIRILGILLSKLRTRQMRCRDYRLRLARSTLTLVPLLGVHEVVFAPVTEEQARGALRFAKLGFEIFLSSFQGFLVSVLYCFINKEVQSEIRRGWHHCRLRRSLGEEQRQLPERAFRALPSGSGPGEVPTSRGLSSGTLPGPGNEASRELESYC
Procedure: Cells are cultured per the manufacturer's protocol in DMEM with 10% fetal bovine serum and 1 μg/mL puromycin and stored in frozen aliquots to be used as assay ready cells. On the day of the assay, cells are removed from frozen storage, washed two times in 1× Kreb's Ringer Buffer (Zenbio, Research Triangle Park, N.C.), and re-suspended to a concentration of 4×10^5 cells/mL in 1× Kreb's Ringer Buffer. […] Cells are incubated with test compound for 1 hr at room temperature in the dark, and cAMP accumulation is measured using the Cisbio HiRange cAMP assay kit (Bedford, Mass.) per the manufacturer's protocol. Anti-cAMP antibody and d2-cAMP tracer reagents diluted in lysis/detection buffer are incubated in the dark for 1 hr, and results are measured on an Envision plate reader (Perkin Elmer, Waltham, Mass.). Data is normalized using 1 nM GIP as 100% activity, and DMSO alone as 0% activity.

human GLP-1R = target: T2, human GLP-1R (Homo sapiens, UniProt P43220); assay: Human GLP1R agonist activity, intracellular cAMP accumulation; type: cell-based; conditions: HEK-293T cells overexpressing human GLP-1R, 1 hr
T2 construct: HEK-293T cells overexpressing full-length human GLP-1R; FLAG (N); host or cells: HEK-293T
Procedure, shortened: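 Frozen assay-ready cells washed and resuspended at 4×10^5 cells/mL in Krebs Ringer buffer, then incubated with compound 1 hr at room temperature in the dark. cAMP read by HTRF (anti-cAMP antibody, d2-cAMP tracer). Normalised to 1 nm GLP-1 (100%) and DMSO (0%).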

C57BL/6J mice = assay: Oral glucose tolerance test (OGTT); type: in vivo; conditions: 3 nmol/kg s.c., 24 hours before glucose loading
Procedure, shortened: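 Peptide or vehicle given s.c. at 0.1, 0.3, 3 or 10 nmol/kg (peptide-dependent), 24 h before oral 50% dextrose at 5 ml/kg unless stated otherwise. Blood glucose read at 0, 15, 30 and 60 min. % inhibition = (1−(AUC cpd−AUC naïve)/(AUC veh−AUC naïve))×100.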

[1] = Human plasma protein binding (PPB); type: in vitro ADME; conditions: for free unbound peptide in human plasma (in words): judged for once per week (QW) dosing
Procedure, shortened: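 Peptides spiked at 1000 nmol/L into pooled human K2-EDTA plasma adjusted to pH 7.4, incubated 30 min at 37 °C, then ultracentrifuged at ~450,000 g, 4 °C for 3 h. Fu derived from LC-MS/MS (MRM) peak area ratios, supernatant versus plasma.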

[2] = Dog plasma protein binding (PPB); type: in vitro ADME; conditions: pH 7.4; fraction unbound; dog serum; read-out: Dog PPB (FUplasma)
Procedure, shortened: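 Dog serum replaced human serum, with the protocol and analysis otherwise the same as for human plasma protein binding. Values are reported as fraction unbound (Fu,plasma) expressed as a percentage.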

[3] = Solubility in phosphate buffer pH 7.4
Procedure, shortened: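 3 mg of peptide treated with 100 μL portions of 200 mM phosphate buffer pH 7.4, sonicating/vortexing up to 1 min, with further buffer added until fully dissolved. Solubility then quantified by HPLC.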

male ferrets = type: in vivo
Procedure: 1. Effect of subcutaneously administered GIP receptor agonist peptide in morphine-induced acute emetic model.
To evaluate the antiemetic effect, the GIP receptor agonist peptides other than natural human GIP are subcutaneously administered into male ferrets 24 hrs before morphine administration. Up to 60 minutes after morphine administration, the condition of the ferrets is monitored to record the frequencies and time points of abdominal contraction motions, vomiting behaviors, licking with the tongue, and fidgety behavior occurring. GIP receptor agonist peptide compounds of the present disclosure dosed at 0.3-10 nmol/kg attenuated the morphine (0.6 mg/kg, s.c.)-induced emesis in the ferrets.
GIP receptor agonist peptides are dissolved with a vehicle (0.09 w/v % tween 80/10% DMSO/saline), respectively, to prepare test solutions. […] of the test solutions and the vehicle are subcutaneously administered to ferrets (4 in each group), respectively. At the time of each of 4 or 24 hours after administration, 0.6 mg/kg of morphine is subcutaneously administered.

[4] = Pharmacokinetics in dog after IV and SC dosing; conditions: in vivo; for half-life: IV 3 nmol/kg, read-out: IV T½ (converted); for MRT last: SC 3 nmol/kg, read-out: SC MRT 0-last
Procedure, shortened: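 Dogs were dosed IV or SC at 1 mL/kg with peptide at 3 nmol/mL in 10% DMSO/0.09% Polysorbate/PBS pH 7.4. K2-EDTA plasma was sampled to 336 h, and peptide was quantified by LCMS to derive half-life.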

[5] = both sexes, pH 7.4, fraction unbound, human plasma, 1000 nmol/L peptide, ultracentrifugation, read-out: Human PPB (FUplasma)

T2 sequence (P43220 24-463): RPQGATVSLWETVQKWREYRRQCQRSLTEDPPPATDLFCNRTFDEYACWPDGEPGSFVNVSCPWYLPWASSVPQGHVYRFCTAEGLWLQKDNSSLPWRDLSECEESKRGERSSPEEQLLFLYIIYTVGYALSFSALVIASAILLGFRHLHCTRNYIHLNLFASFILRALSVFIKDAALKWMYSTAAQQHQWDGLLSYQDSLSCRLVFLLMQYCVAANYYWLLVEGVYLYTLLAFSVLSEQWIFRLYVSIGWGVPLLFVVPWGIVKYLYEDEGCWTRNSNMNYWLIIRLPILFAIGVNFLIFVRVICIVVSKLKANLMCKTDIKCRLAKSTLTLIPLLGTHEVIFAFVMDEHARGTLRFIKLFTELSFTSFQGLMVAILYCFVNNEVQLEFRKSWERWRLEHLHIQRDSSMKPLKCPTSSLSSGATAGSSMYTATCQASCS

SMILES | EC50 (human GIPR) | EC50 (human GLP-1R; Human GLP1R cAMP EC50, HEK293T (nM)) | Oral Glucose Tolerance Test Percent decrease in blood glucose AUC (%) over 60 mins (C57BL/6J mice) | fraction unbound at 30 min, 1000 nmol/L [1, 5] | fraction unbound at 30 min, 1000 nmol/L [2] | solubility ([3]; pH 7.4, aqueous buffer, pH 7.4 Phosphate Buffer - Solubility, 200 mM Phosphate buffer pH 7.4) | solubility ([3]; pH 7.4, solubility in phosphate buffer at pH 7.4, 200 mM phosphate buffer pH 7.4) | % inhibition of emetic events at doses (nmol/kg) and timepoints shown in ferret morphine model (male ferrets; in vivo, sc, 24 h) | fraction unbound [1, 5] | free unbound peptide in human plasma (in words) [1] | fraction unbound [2] | solubility ([3]; pH 7.4) | solubility ([3]; pH 7.4, aqueous buffer) | half-life [4] | MRT last [4] | EC50 (human GLP-1R; read-out: Human GLP1R cAMP EC50, HEK293T) | % inhibition of emetic events at doses (nmol/kg) and timepoints shown in ferret morphine model (male ferrets; 24 hrs, 1 nmol/kg s.c.) | effect on morphine-induced emesis in ferrets (in words) (male ferrets; morphine 0.6 mg/kg s.c., peptides dosed at 0.3-10 nmol/kg s.c.)
CC[C@H](C)[C@H](NC(=O)[C@H](CO)NC(=O)[C@H](Cc1ccc(O)cc1)NC(=O)[C@H](CC(=O)O)NC(=O)[C@H](CO)NC(=O)[C@@H](NC(=O)[C@H](Cc1ccccc1)NC(=O)[C@@H](NC(=O)CNC(=O)[C@H](CCC(=O)O)NC(=O)C(C)(C)NC(=O)[C@H](Cc1ccc(O)cc1)NC)[C@@H](C)O)[C@@H](C)CC)C(=O)N[C@@H](C)C(=O)N[C@@H](CCCCNC(=O)CNC(=O)CNC(=O)CNC(=O)CNC(=O)CNC(=O)CCCCCCCCCCCCCCCCC(=O)O)C(=O)N[C@@H](CC(=O)O)C(=O)N[C@@H](CCCNC(=N)N)C(=O)NC(C)(C)C(=O)N[C@@H](C)C(=O)N[C@@H](CCC(N)=O)C(=O)NC(C)(C)C(=O)N[C@@H](CC(N)=O)C(=O)N[C@@H](Cc1ccccc1)C(=O)N[C@H](C(=O)N[C@@H](CC(N)=O)C(=O)N[C@@H](Cc1c[nH]c2ccccc12)C(=O)N[C@@H](CC(C)C)C(=O)N[C@@H](CC(C)C)C(=O)N[C@@H](C)C(=O)N[C@@H](CCC(N)=O)C(=O)N[C@@H](CCCNC(=N)N)C(=O)N1CCC[C@H]1C(=O)N[C@@H](CO)C(=O)N[C@@H](CO)C(=O)NCC(=O)N[C@@H](C)C(=O)N1CCC[C@H]1C(=O)N1CCC[C@H]1C(=O)N1CCC[C@H]1C(=O)N[C@@H](CO)C(=O)O)C(C)C [Compound 44] | 0.0017 nM | 10.7 nM | 119% (3 nmol/kg) | 0.0007 | 0.0004 | ≥ 30 mg/mL | ≥ 15 mg/mL | – | – | – | – | – | – | – | – | – | – | –
CC[C@H](C)[C@H](NC(=O)[C@H](Cc1ccccc1)NC(=O)[C@@H](NC(=O)CNC(=O)[C@H](CCC(=O)O)NC(=O)C(C)(C)NC(=O)[C@H](Cc1ccc(O)cc1)NC)[C@@H](C)O)C(=O)N[C@@H](CO)C(=O)N[C@@H](CC(=O)O)C(=O)N[C@@H](Cc1ccc(O)cc1)C(=O)N[C@@H](CO)C(=O)N[C@H](C(=O)NC(C)(C)C(=O)N[C@@H](CC(C)C)C(=O)N[C@@H](CC(=O)O)C(=O)N[C@@H](CCCNC(=N)N)C(=O)NC(C)(C)C(=O)N[C@@H](C)C(=O)N[C@@H](CCC(N)=O)C(=O)NC(C)(C)C(=O)N[C@@H](CCCCNC(=O)COCCOCCNC(=O)COCCOCCNC(=O)CC[C@H](NC(=O)CC[C@H](NC(=O)CCCCCCCCCCCCCCCCC(=O)O)C(=O)O)C(=O)O)C(=O)N[C@@H](Cc1ccccc1)C(=O)N[C@H](C(=O)N[C@@H](CC(N)=O)C(=O)N[C@@H](Cc1c[nH]c2ccccc12)C(=O)N[C@@H](CC(C)C)C(=O)N[C@@H](CC(C)C)C(=O)N[C@@H](C)C(=O)N[C@@H](CCC(N)=O)C(=O)N[C@@H](CCCNC(=N)N)C(=O)NCC(=O)O)C(C)C)[C@@H](C)CC [Compound 72, Me-Y-Aib-E-G-T-F-I-S-D-Y-S-I-Aib-L-D-R-Aib-A-Q-Aib-Km-F-V-N-W-L-L-A-Q-R-G-OH] (H-[NMeY][Aib]EGTFISDYSI[Aib]LDR[Aib]AQ[Aib]K([AEEA-AEEA-γGlu-γGlu-C18 diacid])FVNWLLAQRG-OH) | – | – | – | – | – | – | – | 100% (3 nmol/kg); 100% | 0.0036 | optimum free unbound peptide | 0.0062 | ≥ 15 mg/mL | ≥ 60 mg/mL | 92 h | 125 h | – | – | –
CC[C@H](C)[C@H](NC(=O)[C@H](CO)NC(=O)[C@H](Cc1ccc(O)cc1)NC(=O)[C@H](CC(=O)O)NC(=O)[C@H](CO)NC(=O)[C@@H](NC(=O)[C@H](Cc1ccccc1)NC(=O)[C@@H](NC(=O)CNC(=O)[C@H](CCC(=O)O)NC(=O)C(C)(C)NC(=O)[C@H](Cc1ccc(O)cc1)NC)[C@@H](C)O)[C@@H](C)CC)C(=O)N[C@@H](C)C(=O)N[C@@H](CCCCNC(=O)CNC(=O)CNC(=O)CNC(=O)CNC(=O)CNC(=O)CCCCCCCCCCCCCCCCC(=O)O)C(=O)N[C@@H](CC(=O)O)C(=O)N[C@@H](CCCNC(=N)N)C(=O)NC(C)(C)C(=O)N[C@@H](C)C(=O)N[C@@H](CCC(N)=O)C(=O)NC(C)(C)C(=O)N[C@@H](CC(=O)O)C(=O)N[C@@H](Cc1ccccc1)C(=O)N[C@H](C(=O)N[C@@H](CC(N)=O)C(=O)N[C@@H](Cc1c[nH]c2ccccc12)C(=O)N[C@@H](CC(C)C)C(=O)N[C@@H](CC(C)C)C(=O)N[C@@H](C)C(=O)N[C@@H](CCC(N)=O)C(=O)N[C@@H](CO)C(=O)N1CCC[C@H]1C(=O)NCC(=O)O)C(C)C [Compound 84, Me-Y-Aib-E-G-T-F-I-S-D-Y-S-I-A-Km-D-R-Aib-A-Q-Aib-D-F-V-N-W-L-L-A-Q-S-P-G-OH] | – | – | 72% (3 nmol/kg) | – | – | – | – | – | 0.0009 | optimum free unbound peptide | 0.0003 | ≥ 15 mg/mL | ≥ 60 mg/mL | 62 h | 82 h | 58.9 nM | 24 hrs: 65% (1 nmol/kg); | effective in completely inhibiting the frequency of emesis
